According to publication PMC5832243, “The importance of negative determinants as modulators of CK2 targeting. The lesson of Akt2 S131” (PLoS ONE, 2018):

Columns and labels:
Assay type in all cases: biochemical
recombinant CK2 α2β2 = molecular target: T1, recombinant CK2 α2β2 (Homo sapiens, UniProt P67870+P68400); assay: CK2 kinase assay, phosphorylation of synthetic peptides (33P, phosphocellulose filters); details: for Phosphorylation by CK2, time course (in words): 0-120 min incubation with CK2 (Fig 1A); for Phosphorylation by CK2: summary class of level of phosphorylation by CK2 (Table 4); for Effect of residue replacement in the Akt2 peptide on phosphorylation by CK2 (in words): 10 min with CK2, % of cpm of Akt1 wt peptide, means of 4 experiments (Fig 2A)
T1 construct: made in house
Method: Recombinant CK2α and CK2 α2β2 were expressed, purified and kindly donated by Dr. Stefania Sarno (Padova, Italy) and Andrea Venerando (Padova, Italy).
Phosphorylation of synthetic peptides was performed with recombinant CK2 α2β2 (0.025 μg) incubated at 30°C in a final volume of 20 μl containing 50 mM Tris/HCl (pH 7.5), 100 mM NaCl, 10 mM MgCl2, the indicated concentrations of peptides, and 20 μM [γ^33P-ATP] (5000–10000 cpm/pmol). Assays were stopped by spotting onto phosphocellulose filters. Filters were washed four times in 0.5% orthophosphoric acid before counting.

CK2 = assay: Phospho-aminoacid determination after CK2 phosphorylation (acid hydrolysis, high-voltage paper electrophoresis); details: 2 mM peptide, 20 or 120 min with CK2; only faint traces of phospho-threonine (Fig 2C)
Method: For the identification of the amino acids phosphorylated by CK2 in Akt2 peptide, after phosphorylation samples were hydrolyzed by incubation for 4 h at 110°C in 6 N HCl, then subjected to high-voltage paper electrophoresis at pH 1.9 for 2.5 h, in the presence of nonradioactive phospho-amino acids, as migration reference. Radioactivity was detected by digital autoradiography (Cyclone plus storage phosphor system, PerkinElmer), while migration of standard references was detected by ninhydrin staining.

[1] = tested on: Recombinant human PLK3-GST; assay: PLK3 kinase assay on substrate peptides (33P, phosphocellulose filters); details: 1mM peptide, 1.5 μg PLK3, 10 min, 37°C, 20 μM [γ-33P]ATP; range according to the specific radioactivity; no-peptide control 2800-9000 cpm
Method: Recombinant human PLK3-GST (Polo-like kinase3 - Glutathione S-transferase), cloned in PGEX-4T1 vector, was produced in BL21 cells and purified by glutathione-Sepharose affinity chromatography, eluted by an elution buffer composed of 50mM Hepes, pH 8.0 and 20mM reduced glutathione. Purity was assessed by SDS-PAGE and Comassie blue staining.
1.5 μg of purified recombinant-PLK3 were incubated with the substrate peptides for 10 min at 37°C in 20 μl of kinase assay buffer containing 20 mM Tris-HCl pH 7.5, 10 mM MgCl2, 5mM DTT (dithiothreitol), 20 μM [γ-^33P]ATP (2000-6000 cpm/pmol). Assays were stopped by spotting onto phosphocellulose filters. Filters were washed four times in 0.5% orthophosphoric acid before scintillation counting.

T1 sequence (P68400 whole entry): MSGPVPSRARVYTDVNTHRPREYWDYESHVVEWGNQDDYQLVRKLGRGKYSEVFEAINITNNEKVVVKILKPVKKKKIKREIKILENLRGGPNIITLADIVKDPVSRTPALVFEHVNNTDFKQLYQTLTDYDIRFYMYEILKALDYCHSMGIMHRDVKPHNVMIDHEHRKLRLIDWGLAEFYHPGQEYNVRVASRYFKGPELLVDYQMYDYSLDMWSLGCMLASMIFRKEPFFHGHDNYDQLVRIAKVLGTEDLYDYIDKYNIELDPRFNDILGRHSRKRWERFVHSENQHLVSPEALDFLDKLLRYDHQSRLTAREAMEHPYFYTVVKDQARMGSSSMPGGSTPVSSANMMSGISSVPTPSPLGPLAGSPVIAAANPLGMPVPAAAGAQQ
T1 sequence (P67870 whole entry partner): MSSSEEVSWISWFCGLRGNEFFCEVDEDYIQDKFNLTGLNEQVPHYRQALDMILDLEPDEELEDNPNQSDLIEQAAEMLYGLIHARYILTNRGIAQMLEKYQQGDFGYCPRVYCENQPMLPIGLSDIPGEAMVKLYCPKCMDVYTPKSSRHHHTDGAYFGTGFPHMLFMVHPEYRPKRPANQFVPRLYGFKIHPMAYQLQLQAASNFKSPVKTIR

Substance | Phosphorylation by CK2 (recombinant CK2 α2β2) | Effect of residue replacement in the Akt2 peptide on phosphorylation by CK2 (in words) (recombinant CK2 α2β2) | other results
R3GSPSDNSGAEEMEV [Akt1(wt)] | + | – | Phosphorylation by CK2, time course (in words) (recombinant CK2 α2β2): good substrate
R3GSPSDNSTAEEMEV [Akt1GT, Akt1 peptide with G at n+1 replaced by T] | - (or not (-)) | – | –
R3GSPSDNSTTEEMEV [Akt2N, Akt2 peptide with S at n-1 replaced by N] | - (or not (-)) | no beneficial effect | –
R3GSPSDSSATEEMEV [Akt2TA, Akt2 peptide with T at n+1 replaced by A] | + | – | –
R3GSPSDSSGTEEMEV [Akt2TG, Akt2 peptide with T at n+1 replaced by G] | + | comparable to that of the Akt1 peptide | –
R3GSPSDSSSTEEMEV [Akt2TS, Akt2 peptide with T at n+1 replaced by S] | + | – | –
R3GSPSDSSTAEEMEV [Akt2A, Akt2 peptide with T at n+2 replaced by A] | - (or not (-)) | no beneficial effect | –
R3GSPSDSSTTEEMEV [Akt2(wt)] | - (or not (-)) | – | Phospho-aminoacid accounting for phosphorylation by CK2 (CK2): entirely accounted for by phospho-serine; cpm detected in PLK3 assay [1]: 50000-150000 cpm; Phosphorylation by CK2, time course (in words) (recombinant CK2 α2β2): negligible extent; drop in phosphorylation efficiency in comparison to the Akt1 peptide (recombinant CK2 α2β2; from Km and Vmax of Fig 1B): ~10 fold
